Experimental data from patent US10294202B2, “Pyrrolidinones as herbicides” (FMC Corporation, priority 2013, dated 2019).

Legend:
giant foxtail = assay: Test A pre-/postemergence herbicide test; type: in vivo, Setaria faberii
In short: (§1)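 Seeds in loam–sand blend received preemergence directed soil spray; separately, plants 2–10 cm at one- to two-leaf stage received postemergence spray, both with test chemicals in non-phytotoxic solvent with surfactant. After ~10 days in greenhouse, injury rated visually against untreated controls, 0 (no effect) to 100 (complete control).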

wheat = assay: Test A pre-/postemergence herbicide test; type: in vivo, Triticum aestivum
In short: as §1

barnyardgrass [1] = assay: Test B flooded paddy test; type: in vivo, Echinochloa crus-galli; settings: 250 g ai/ha, Flood; scale of 0 to 100 where 0 is no effect and 100 is complete control
In short: (§2)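 Scored visually 0–100 (0 no effect, 100 complete control) versus controls after 13 to 15 greenhouse days. Treatment: compound added to paddy water kept 3 cm above soil, on 2-leaf-stage plants.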

pigweed = assay: Test A pre-/postemergence herbicide test; type: in vivo, Amaranthus retroflexus
In short: as §1

corn = assay: Test A pre-/postemergence herbicide test; type: in vivo, Zea mays
In short: as §1

rice = assay: Test B flooded paddy test; type: in vivo, Oryza sativa; settings: 250 g ai/ha, Flood; scale of 0 to 100 where 0 is no effect and 100 is complete control
In short: as §2

morningglory = assay: Test A pre-/postemergence herbicide test; type: in vivo, Ipomoea spp.
In short: as §1

crabgrass, large = assay: Test A pre-/postemergence herbicide test; type: in vivo, Digitaria sanguinalis
In short: as §1

ducksalad = assay: Test B flooded paddy test; type: in vivo, Heteranthera limosa; settings: 250 g ai/ha, Flood; scale of 0 to 100 where 0 is no effect and 100 is complete control
In short: as §2

sedge, umbrella = assay: Test B flooded paddy test; type: in vivo, Cyperus difformis; settings: 250 g ai/ha, Flood; scale of 0 to 100 where 0 is no effect and 100 is complete control
In short: as §2

velvetleaf = assay: Test A pre-/postemergence herbicide test; type: in vivo, Abutilon theophrasti
In short: as §1

barnyardgrass [2] = assay: Test A pre-/postemergence herbicide test; type: in vivo, Echinochloa crus-galli
In short: as §1

[3] = Postemergence, 125 g ai/ha, 0 to 100 scale, 0 no effect, 100 complete control
[4] = Postemergence, 500 g ai/ha, 0 to 100 scale (0 no effect, 100 complete control)
[5] = Preemergence, 125 g ai/ha, visual rating on 0 to 100 scale (0 no effect, 100 complete control)
[6] = preemergence, 500 g ai/ha, 0 to 100 scale

COc1cccc(NC(=O)C2C(=O)NCC2c2ccc(F)c(F)c2)n1 (stereo not drawn) [Compound 58]
Plant response rating, Foxtail, Giant (giant foxtail; [3]): 20
Plant response rating, Foxtail, Giant (giant foxtail; [4]): 70
Foxtail, Giant plant response rating (giant foxtail; [5]): 20
Plant response rating, Foxtail, Giant (giant foxtail; [6]): 80
Plant response rating, Wheat (wheat; [3]): 0
Plant response rating, Wheat (wheat; [4]): 0
Wheat plant response rating (wheat; [5]): 0
Plant response rating, Wheat (wheat; [6]): 0
Plant response rating, Barnyardgrass (barnyardgrass [1]): 0
Plant response rating, Pigweed (pigweed; [3]): 0
Plant response rating, Pigweed (pigweed; [4]): 0
Pigweed plant response rating (pigweed; [5]): 0
Plant response rating, Pigweed (pigweed; [6]): 0
Plant response rating, Corn (corn; [3]): 0
Plant response rating, Corn (corn; [4]): 0
Corn plant response rating (corn; [5]): 0
Plant response rating, Corn (corn; [6]): 0
Plant response rating, Rice (rice): 0
Plant response rating, Morningglory (morningglory; [3]): 0
Plant response rating, Morningglory (morningglory; [4]): 0
Morningglory plant response rating (morningglory; [5]): 0
Plant response rating, Morningglory (morningglory; [6]): 0
Plant response rating, Crabgrass, Large (crabgrass, large; [3]): 40
Plant response rating, Crabgrass, Large (crabgrass, large; [4]): 80
Crabgrass, Large plant response rating (crabgrass, large; [5]): 70
Plant response rating, Crabgrass, Large (crabgrass, large; [6]): 90
Plant response rating, Ducksalad (ducksalad): 0
Plant response rating, Sedge, Umbrella (sedge, umbrella): 0
Plant response rating, Velvetleaf (velvetleaf; [3]): 0
Plant response rating, Velvetleaf (velvetleaf; [4]): 0
Velvetleaf plant response rating (velvetleaf; [5]): 0
Plant response rating, Velvetleaf (velvetleaf; [6]): 0
Plant response rating, Barnyardgrass (barnyardgrass [2]; [3]): 0
Plant response rating, Barnyardgrass (barnyardgrass [2]; [4]): 0
Barnyardgrass plant response rating (barnyardgrass [2]; [5]): 0
Plant response rating, Barnyardgrass (barnyardgrass [2]; preemergence, 500 g ai/ha, 0 to 100 scale (0 no effect, 100 complete control)): 20
